Experimental data reported in US12588689B2, “Feed additive composition containing erythritol” (EASY BIO, INC, priority 2020, dated 2026).
Marks after values point to notes of the source that are not given here.

Tested on: broiler chickens (Ross 308)
Assay: Broiler chicken specification test, composition containing erythritol (noise and high temperature stress)
Type: in vivo
From the text: To investigate the influence of composition containing erythritol on high temperature stress reduction in summer season, 1,280 broiler chickens (Ross 308; male and female chickens) with average weight of 44.0 g and 1 day old were divided into eight treatment groups with 10 repetitions, and then, 16 chickens were arbitrarily located in total 80 fences, thereby performing breeding tests. The mixing rates represent weight ratios, and additives by treatment group are post-formulated in a farm. The erythritol (99%) used in the formulation was purchased at Vision Pharmalab Co., Ltd., and the beta-glucan was used with Biolife (ENT Co., Ltd., 40 to 50% beta-glucan content) used in the fourth embodiment of the present invention. • Control group (CON): Formulated feed • E: Formulated feed+0.02% erythritol • B: Formulated feed+0.02% beta-glucan • L: Formulated feed+0.02% lipidol • E+B: Formulated feed+0.02% erythritol+0.02% beta-glucan • E+L: Formulated feed+0.02% erythritol+0.02% lipidol • B+L: Formulated feed+0.02% beta-glucan+0.02% lipidol • E+B+L: Formulated feed+0.02% erythritol+0.02% beta-glucan+0.02% lipidol
The feed and water were sufficiently supplied and freely fed. So as to cause stress, 80 to 100 dB noise was produced two times per a day for ten minutes, and to cause high temperature stress, Temperature-Humidity Index (THI) as shown in FIG. 4 was kept.
The weights and feed intake were measured on week 1, week 3, and week 5 to calculate weight gain per day, feed intake per day, and feed conversion ratios (FCR), and the calculated results are listed in Table 6, together with mortality rates.

OC[C@@H](O)[C@@H](O)CO [E, erythritol]
Feed conversion ratio (Step 1 (1~7 days of age)): 1.36 | Feed intake (Step 1 (1~7 days of age)): 19.4 g/day | Mortality rate (Step 1 (1~7 days of age)): 0.0% | Weight gain (Step 1 (1~7 days of age)): 14.3 g/day | Weight (Step 1 (1~7 days of age), 0.02% of each additive in formulated feed): 144.0 g | Feed conversion ratio (Step 2 (8~21 days of age)): 1.74^a | Feed intake (Step 2 (8~21 days of age)): 69.3 g/day | Mortality rate (Step 2 (8~21 days of age)): 1.3% | Weight (Step 2 (8~21 days of age)): 705.4^e g | Weight gain (Step 2 (8~21 days of age)): 40.1^d g/day | Feed conversion ratio (Step 3 (22~35 days of age)): 1.88 | Feed intake (Step 3 (22~35 days of age)): 236.9 g/day | Mortality rate (Step 3 (22~35 days of age)): 3.8% | Weight (Step 3 (22~35 days of age)): 1592.3^e g | Weight gain (Step 3 (22~35 days of age)): 126.7^c g/day | Feed conversion ratio (Total (1~35 days of age)): 1.79^a | Feed intake (Total (1~35 days of age)): 98.6^bc g/day | Survival rate (Total (1~35 days of age)): 95.0% | Weight gain (Total (1~35 days of age)): 55.3^e g/day | weight gain, feed intake and feed conversion ratios compared with the control group (entire breeding period, result in words): no significant difference
